Assay results taken from paper PMC7162861, “Synthesis, cytotoxicity, pharmacokinetic profile, binding with DNA and BSA of new imidazo[1,2-a]pyrazine-benzo[d]imidazol-5-yl hybrids” (Scientific Reports, 2020).

How the values were obtained:
[1] = tested on: OVCAR-4; experiment: NCI cytotoxicity screen, Ovarian Cancer panel; type: cell-based
Procedure: (§1) Cytotoxicity was performed at National Cancer Institute (NCI), Bethesda, USA as per their protocols.

[2] = tested on: IGROV1; experiment: NCI cytotoxicity screen, Ovarian Cancer panel; type: cell-based; settings: Homo sapiens, IGROV-1, five dose 0.01–100 µM
Procedure: as §1

[3] = tested on: SK-OV-3; experiment: NCI cytotoxicity screen, Ovarian Cancer panel; type: cell-based
Procedure: as §1

[4] = tested on: A498; experiment: NCI cytotoxicity screen, Renal Cancer panel; type: cell-based
Procedure: as §1

[5] = tested on: UO-31; experiment: NCI cytotoxicity screen, Renal Cancer panel; type: cell-based
Procedure: as §1

[6] = tested on: SN12C; experiment: NCI cytotoxicity screen, Renal Cancer panel; type: cell-based
Procedure: as §1

[7] = tested on: CAKI-1; experiment: NCI cytotoxicity screen, Renal Cancer panel; type: cell-based
Procedure: as §1

[8] = tested on: RXF 393; experiment: NCI cytotoxicity screen, Renal Cancer panel; type: cell-based
Procedure: as §1

[9] = tested on: ACHN; experiment: NCI cytotoxicity screen, Renal Cancer panel; type: cell-based
Procedure: as §1

[10] = tested on: SK-MEL-2; experiment: NCI cytotoxicity screen, Melanoma panel; type: cell-based
Procedure: as §1

[11] = tested on: MDA-MB-435; experiment: NCI cytotoxicity screen, Melanoma panel; type: cell-based; settings: MDA-MB-435
Procedure: as §1

[12] = tested on: MALME-3M; experiment: NCI cytotoxicity screen, Melanoma panel; type: cell-based
Procedure: as §1

[13] = tested on: SK-MEL-28; experiment: NCI cytotoxicity screen, Melanoma panel; type: cell-based
Procedure: as §1

[14] = tested on: SK-MEL-5; experiment: NCI cytotoxicity screen, Melanoma panel; type: cell-based
Procedure: as §1

[15] = tested on: UACC-257; experiment: NCI cytotoxicity screen, Melanoma panel; type: cell-based
Procedure: as §1

[16] = tested on: HOP-92; experiment: NCI cytotoxicity screen, Non-Small Cell Lung Cancer panel; type: cell-based
Procedure: as §1

[17] = tested on: NCI-H460; experiment: as above; type: cell-based
Procedure: as §1

[18] = tested on: EXVX; experiment: as above; type: cell-based; settings: Homo sapiens
Procedure: as §1

[19] = tested on: A549/ATCC; experiment: as above; type: cell-based
Procedure: as §1

[20] = tested on: HOP-62; experiment: as above; type: cell-based
Procedure: as §1

[21] = Experimental log P, shake-flask method; type: physicochemical; settings: n-octanol/phosphate buffer pH 7.4, read-out: Exp. Log P
Procedure, shortened: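 Shake-flask partitioning between n-octanol and phosphate buffer pH 7.4, shaken 50 min, then centrifuged 35 min at 2500 rpm. Buffer-phase absorbance at each compound's λmax measured before and after partitioning. P calculated from absorbance drop and phase volume ratio.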

[22] = Homo sapiens, five dose 0.01–100 µM, read-out: LC50 (the source's name)
[23] = Homo sapiens, five dose 0.01–100 µM

SMILES: c1cn2cc(-c3ccc4ncn(C5CCCCC5)c4c3)nc(-c3ccc4c(c3)ncn4C3CCCCC3)c2n1 [Compound 31, 8-(1-cyclohexyl-1H-benzo[d]imidazol-5-yl)-6-(1-cyclohexyl-1H-benzo[d]imidazol-6-yl)imidazo[1,2-a]pyrazine]
- inhibition at 10 µM ([1]; Homo sapiens, OVCAR-4, read-out: Percent growth inhibition): 97.2%
- CC50 ([1]; Homo sapiens, OVCAR-4, five dose 0.01–100 µM, read-out: LC50 (the source's name)): > 1000 nM
- TGI ([1]; OVCAR-4, five dose 0.01–100 µM): 6.30 µM
- GI50 [2]: 2040 nM
- GI50 ([3]; Homo sapiens): 2270 nM
- CC50 [3, 22]: 7.42 µM
- TGI ([3]; five dose 0.01–100 µM): 4.10 µM
- GI50 ([4]; Homo sapiens): 1770 nM
- CC50 [4, 22]: 5.85 µM
- TGI ([4]; five dose 0.01–100 µM): 3.22 µM
- GI50 ([5]; Homo sapiens): 1490 nM
- CC50 [5, 22]: 5.46 µM
- TGI ([5]; five dose 0.01–100 µM): 2.85 µM
- GI50 ([6]; Homo sapiens): 2050 nM
- CC50 [6, 22]: > 1000 nM
- TGI ([6]; five dose 0.01–100 µM): 4.53 µM
- TGI ([7]; CAKI-1, five dose 0.01–100 µM): 2.95 µM
- GI50 ([7]; Homo sapiens, CAKI-1): 1460 nM
- inhibition at 10 µM ([7]; Homo sapiens, CAKI-1, read-out: Percent growth inhibition): 82.8%
- CC50 ([7]; Homo sapiens, CAKI-1, five dose 0.01–100 µM, read-out: LC50 (the source's name)): 5.97 µM
- GI50 ([8]; Homo sapiens): 1510 nM
- CC50 [8, 22]: 5.94 µM
- TGI ([8]; five dose 0.01–100 µM): 2.99 µM
- GI50 ([9]; Homo sapiens): 1680 nM
- CC50 [9, 22]: 5.61 µM
- TGI ([9]; five dose 0.01–100 µM): 3.07 µM
- GI50 ([10]; Homo sapiens): 1740 nM
- CC50 [10, 22]: 6.45 µM
- TGI ([10]; five dose 0.01–100 µM): 3.35 µM
- GI50 ([11]; Homo sapiens): 1770 nM
- CC50 [11, 22]: 7.11 µM
- TGI ([11]; five dose 0.01–100 µM): 3.55 µM
- GI50 ([12]; Homo sapiens, Malme-3M): 2110 nM
- CC50 ([12]; Homo sapiens, MALME-3M, five dose 0.01–100 µM, read-out: LC50 (the source's name)): 6.68 µM
- TGI ([12]; MALME-3M, five dose 0.01–100 µM): 3.75 µM
- GI50 ([13]; Homo sapiens): 1810 nM
- CC50 [13, 22]: 6.43 µM
- TGI ([13]; five dose 0.01–100 µM): 3.41 µM
- GI50 ([14]; Homo sapiens): 1490 nM
- CC50 [14, 22]: 5.39 µM
- TGI ([14]; five dose 0.01–100 µM): 2.83 µM
- GI50 ([15]; Homo sapiens): 2100 nM
- LC50 [15, 23]: 6.24 µM
- TGI ([15]; five dose 0.01–100 µM): 3.62 µM
- GI50 ([16]; Homo sapiens): 1540 nM
- LC50 [16, 23]: 6.73 µM
- TGI ([16]; five dose 0.01–100 µM): 3.22 µM
- GI50 ([17]; Homo sapiens): 1980 nM
- CC50 [17, 22]: 8.16 µM
- TGI ([17]; five dose 0.01–100 µM): 4.02 µM
- GI50 [18]: 1970 nM
- TGI ([19]; A549/ATCC, five dose 0.01–100 µM): 3.54 µM
- GI50 ([19]; Homo sapiens, A549): 1940 nM
- CC50 ([19]; Homo sapiens, A549/ATCC, five dose 0.01–100 µM, read-out: LC50 (the source's name)): 6.46 µM
- GI50 ([20]; Homo sapiens): 2000 nM
- CC50 [20, 22]: 6.9 µM
- TGI ([20]; five dose 0.01–100 µM): 3.72 µM
- logP [21]: 1.77
